Measured values from ChEMBL document CHEMBL1201862, “PubChem BioAssay data set” (2004).
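Step 1: Grow cells in 96-well plates. Step 2: Expose to compound for 48 hours at 5 concentrations. Step 3: Interpolate endpoints linearly; if unreached, use highest concentration. At the GI50, growth is halved.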 The source made the active and inactive calls. Rule as the data show it: active = GI50 up to about 1.1 µM and inactive = higher.

Legend:
Assay in all cases: inhibition of tumour cell growth, NCI panel, 48 h
MDA-MB-231 = tested on: MDA-MB-231
OVCAR-5 = tested on: OVCAR-5
SW-620 = tested on: SW-620
UACC-62 = tested on: UACC-62
SK-MEL-2 = tested on: SK-MEL-2
MDA-MB-435 = tested on: MDA-MB-435
HCT-15 = tested on: HCT-15
HOP-62 = tested on: HOP-62
786-0 = tested on: 786-0
CAKI-1 = tested on: CAKI-1
M14 = tested on: M14
NCI-H460 = tested on: NCI-H460
EKVX = tested on: EKVX
PC-3 = tested on: PC-3
DU-145 = tested on: DU-145
HCT-116 = tested on: HCT-116
SF-268 = tested on: SF-268
SK-OV-3 = tested on: SK-OV-3
NCI-H23 = tested on: NCI-H23
SN12C = tested on: SN12C
Malme-3M = tested on: Malme-3M
SF-295 = tested on: SF-295
OVCAR-8 = tested on: OVCAR-8
UACC-257 = tested on: UACC-257
NCI/ADR-RES = tested on: NCI/ADR-RES
SNB-19 = tested on: SNB-19
KM12 = tested on: KM12
OVCAR-4 = tested on: OVCAR-4
SK-MEL-28 = tested on: SK-MEL-28
MDA-N = tested on: MDA-N
SK-MEL-5 = tested on: SK-MEL-5
TK-10 = tested on: TK-10
CCRF-CEM = tested on: CCRF-CEM
SR = tested on: SR
SNB-75 = tested on: SNB-75
SF-539 = tested on: SF-539
OVCAR-3 = tested on: OVCAR-3
MOLT-4 = tested on: MOLT-4
NCI-H226 = tested on: NCI-H226
COLO 205 = tested on: COLO 205
HL-60 = tested on: HL-60
A549 = tested on: A549
T47D = tested on: T47D
IGROV-1 = tested on: IGROV-1
LOX IMVI = tested on: LOX IMVI
UO-31 = tested on: UO-31
MCF7 = tested on: MCF7
Hs-578T = tested on: Hs-578T
U-251 = tested on: U-251
HT-29 = tested on: HT-29
ACHN = tested on: ACHN
K562 = tested on: K562
A498 = tested on: A498
HOP-92 = tested on: HOP-92
RPMI-8226 = tested on: RPMI-8226
NCI-H522 = tested on: NCI-H522

Question: What does the source list for COC(=O)C1CCC(=O)N1CN(C(C)=O)c1ccccc1 (stereo unspecified)?
Answer: GI50 (MDA-MB-231): > 100 µM (inactive); GI50 (OVCAR-5): > 100 µM (inactive); GI50 (SW-620): > 100 µM (inactive); GI50 (UACC-62): > 100 µM (inactive); GI50 (SK-MEL-2): > 100 µM (inactive); GI50 (MDA-MB-435): > 100 µM (inactive); GI50 (HCT-15): > 100 µM; GI50 (HOP-62): > 100 µM (inactive); GI50 (786-0): > 100 µM (inactive); GI50 (CAKI-1): > 100 µM (inactive); GI50 (M14): > 100 µM (inactive); GI50 (NCI-H460): > 100 µM (inactive); GI50 (EKVX): > 100 µM (inactive); GI50 (PC-3): > 100 µM (inactive); GI50 (DU-145): > 100 µM (inactive); GI50 (HCT-116): > 100 µM (inactive); GI50 (SF-268): > 100 µM (inactive); GI50 (SK-OV-3): > 100 µM (inactive); GI50 (NCI-H23): > 100 µM (inactive); GI50 (SN12C): > 100 µM (inactive); GI50 (Malme-3M): > 100 µM (inactive); GI50 (SF-295): > 100 µM (inactive); GI50 (OVCAR-8): > 100 µM (inactive); GI50 (UACC-257): > 100 µM (inactive); GI50 (NCI/ADR-RES): > 100 µM (inactive); GI50 (SNB-19): > 100 µM (inactive); GI50 (KM12): > 100 µM (inactive); GI50 (OVCAR-4): > 100 µM (inactive); GI50 (SK-MEL-28): > 100 µM (inactive); GI50 (MDA-N): > 100 µM (inactive); GI50 (SK-MEL-5): > 100 µM (inactive); GI50 (TK-10): > 100 µM (inactive); GI50 (CCRF-CEM): > 100 µM (inactive); GI50 (SR): 3.39 µM (inactive); GI50 (SNB-75): > 100 µM (inactive); GI50 (SF-539): > 100 µM (inactive); GI50 (OVCAR-3): > 100 µM (inactive); GI50 (MOLT-4): > 100 µM (inactive); GI50 (NCI-H226): > 100 µM (inactive); GI50 (COLO 205): > 100 µM (inactive); GI50 (HL-60): > 100 µM (inactive); GI50 (A549): > 100 µM (inactive); GI50 (T47D): > 100 µM (inactive); GI50 (IGROV-1): > 100 µM (inactive); GI50 (LOX IMVI): > 100 µM (inactive); GI50 (UO-31): > 100 µM (inactive); GI50 (MCF7): > 100 µM (inactive); GI50 (Hs-578T): > 100 µM (inactive); GI50 (U-251): > 100 µM (inactive); GI50 (HT-29): > 100 µM (inactive); GI50 (ACHN): > 100 µM (inactive); GI50 (K562): > 100 µM (inactive); GI50 (A498): > 100 µM (inactive); GI50 (HOP-92): > 100 µM (inactive); GI50 (RPMI-8226): > 100 µM (inactive); GI50 (NCI-H522): > 100 µM (inactive)
